Results on two compounds are retold here after US20170080040A1, “DECOCTION OF OLIVE LEAVES” (priority 2014, published 2017).

Assay [1] is described as follows: Antioxidant activity: decoloring test of the cationic radical ABTS•+. To be noted: mg lyophilized preparation per ml; absorbance at 734 nm; four determinations. As to the method: Biol. Med. 26: 1231, 1999) and by testing the neutralization of the radical 1,1-diphenyl-2-picrylhydrazyl (DPPH^•) (Brand-Williams et al.—Food Sci. Technol. 28: 25, 1995). […] (Yacoubi et al. —Neuropharmacology 45: 977, 2003). The antioxidant activity was evaluated according to the method reported by Re and collaborators (Re et al.—Free Rad. Biol. Med. 26: 1231, 1999). […] In the presence of an antioxidant the ABTS^•+ is reduced to colorless ABTS, determining a decoloring of the solution in which it is dissolved, which can be measured by spectrophotometry quantifying the absorbance at 734 nm. […] The antioxidant activity, expressed as IC50, was compared to that of Trolox, a similar water-soluble to vitamin E, and to that of an infusion of green tea, prepared with 10 g of leaves in 1 liter of water (from which 4.385 g of lyophilized infusion were obtained). For every sample four determinations were carried out and the result was expressed as average±standard deviation of the analyses done. The values of IC50 were calculated on the basis of the linear regression of the straight lines that put the logarithm of the concentrations tested in relation to the reduction of the absorbance measured, using the appropriate function of an electronic spreadsheet. The in vivo data were analyzed according to the Student's t-test, accepting as significant the values of p<0.05. […]

In assay [2] the test system is mice CD-1 males. Kind of assay: Stimulating activity: effect on loss of straightening reflex (sleep) induced by ethanol in mice. Format: in vivo. To be noted: caffeine 60 mg/kg. The source says:
The antioxidant and anti-radical activity was studied on decoctions 1 and 2, respectively, by testing the decolorization of the radical cation ABTS^• (2.2′-azino-bis-3-ethylbenzothiazoline-6-sulphonic acid) (Re et al.—Free Rad. Biol. Med. 26: 1231, 1999) and by testing the neutralization of the radical 1,1-diphenyl-2-picrylhydrazyl (DPPH^•) (Brand-Williams et al.—Food Sci. Technol. 28: 25, 1995). Finally, decoctions 1 and 2 were studied for potential stimulating activity, verifying the effect on sleep induced by ethanol in mice according to the method reported by Yacoubi et al. (Yacoubi et al. —Neuropharmacology 45: 977, 2003).
The stimulating activity of the decoctions of olive leaves was evaluated on the basis of the reduction of the hypnotic effect induced by ethanol in the mice (Yacoubi et al.—Neuropharmacology 45: 977, 2003). The animals were housed in groups of 5 and kept for at least a week in the same place where the test was carried out, at a constant temperature (23±1° C.) and relative humidity (50-60%), with a fixed artificial light cycle (07.00-19.00). The experiment was carried out in conformity with the laws in force that regulate the use of animals for scientific purposes (Italian Legislative Decree 116 of 27 Jan. 1992 and the Directives of the European Communities Council of 24 Nov. 1986/86/609/EEC).
At the moment of the experiment, each animal was positioned individually in a cage. The lyophilized decoctions, dissolved in water, were administered to the mice (dose: 120 mg/kg; volume of solution administered: 10 ml/kg) by means of gastric intubation, 30 minutes before the inter-peritoneal injection of an aqueous composition of ethanol at 20% (v/v; 4 g/kg). The control animals were administered 10 ml/kg of physiological solution. The induction of ethanol induced sedation in the animals, with the loss of the straightening reflex. In every animal both the duration of the latency phase that elapsed between the injection of the ethanol and the loss of the straightening reflex, and the duration of the loss of the straightening reflex were measured. The stimulating activity was evaluated on the basis of both the increase in the latency phase and also on the reduction in the duration of the loss of the straightening reflex. The effect was compared to that of caffeine, at a dose of 60 mg/kg. Each treatment group consisted of 10 animals.
The values of IC50 were calculated on the basis of the linear regression of the straight lines that put the logarithm of the concentrations tested in relation to the reduction of the absorbance measured, using the appropriate function of an electronic spreadsheet. The in vivo data were analyzed according to the Student's t-test, accepting as significant the values of p<0.05.
The stimulating activity of decoctions 1 and 2 was evaluated in the mice, after oral administration of 120 mg/kg of lyophilized decoction (corresponding to 9.6 and 11.9) ml of decoction 1 and 2 liquid/kg), verifying the effect on the loss of straightening induced by the intraperitoneal injection of ethanol (4 g/kg). The parameters evaluated were the increase in the latency phase between the ethanol injection and the loss of the straightening reflex, and the duration of the loss of the straightening reflex (interval between the loss and the re-acquisition of the straightening reflex). As a reference compound, caffeine was used at a dose of 60 mg/kg (corresponding to an average dose of coffee equal to about 40 ml/kg).

[3] abbreviates: mice, oral 30 min before ethanol 4 g/kg i.p., decoctions 120 mg/kg lyophilized, n = 10.
Setting [4] is: mice, oral, decoctions 120 mg/kg, ethanol 4 g/kg i.p.

In the case of `Cc1c(C)c2c(c(C)c1O)CCC(C)(C(=O)O)O2` (stereo not drawn) [Trolox], the “Lyophilized Decoction IC50 Average ± D.S. (antioxidant activity, ABTS)” value in assay [1] turned out to be 30 µg/mL.

In the case of `Cn1c(=O)c2c(ncn2C)n(C)c1=O` [Caffeine, caffeine], in assay [2] (given as positive reduction, decoctions 120 mg/kg), the “reduction in the duration of the loss of the straightening reflex” value worked out at 43%. Further, in assay [2] (setting [3]), the “Duration Average ± E.S. (of the loss of the straightening reflex)” value came to 23.5 ± 3.3 min; the “Latency Average ± E.S. (between ethanol injection and loss of the straightening reflex)” value stood at 215.7 ± 18.2 s. Moreover, in assay [2] (setting [4]), the “Duration Difference (%) with respect to the controls” value was −43% and the “Latency Difference (%) with respect to the controls (increase in the latency period)” value was 48%.
